Source: the NIST ThermoML archive (doi:10.1021/je800150h)
± gives the expanded uncertainty stated by the source.

Assay: xn = mol fraction of the nth substance listed
Conditions: 101 kPa, Liquid

CCO [ethanol] + O
Conditions	mass density [kg/m3]	viscosity [mPa·s]
268.1 K, x2 = 0.1	824.9 ± 3.8	2.307 ± 0.11
268.1 K, x2 = 0.2	838.2 ± 3.9	2.805 ± 0.13
268.1 K, x2 = 0.3	852.2 ± 4	3.345 ± 0.15
268.1 K, x2 = 0.4	867.7 ± 4.1	3.991 ± 0.18
268.1 K, x2 = 0.5	886.6 ± 4.2	4.829 ± 0.22
268.1 K, x2 = 0.6	908.1 ± 4.3	5.931 ± 0.26
268.1 K, x2 = 0.7	931.6 ± 4.4	7.172 ± 0.3
268.1 K, x2 = 0.8	951 ± 4.5	7.549 ± 0.32
268.1 K, x2 = 0.9	977.3 ± 4.6	6.025 ± 0.26
273.1 K, x2 = 0.1	820.3 ± 3.6	2.059 ± 0.096
273.1 K, x2 = 0.2	833.7 ± 3.7	2.491 ± 0.12
273.1 K, x2 = 0.3	847.7 ± 3.8	2.938 ± 0.14
273.1 K, x2 = 0.4	863.4 ± 3.9	3.451 ± 0.16
273.1 K, x2 = 0.5	882.1 ± 3.9	4.123 ± 0.19
273.1 K, x2 = 0.6	903.5 ± 4.1	4.978 ± 0.23
273.1 K, x2 = 0.7	927.1 ± 4.2	5.947 ± 0.26
273.1 K, x2 = 0.8	948 ± 4.3	6.169 ± 0.27
273.1 K, x2 = 0.9	975.6 ± 4.4	4.997 ± 0.23
278.1 K, x2 = 0.1	815.9 ± 3.4	1.837 ± 0.087
278.1 K, x2 = 0.2	829 ± 3.5	2.21 ± 0.1
278.1 K, x2 = 0.3	842.9 ± 3.6	2.579 ± 0.12
278.1 K, x2 = 0.4	858.8 ± 3.6	2.98 ± 0.14
278.1 K, x2 = 0.5	877.7 ± 3.7	3.518 ± 0.16
278.1 K, x2 = 0.6	899.3 ± 3.8	4.176 ± 0.19
278.1 K, x2 = 0.7	922.7 ± 4	4.933 ± 0.22
278.1 K, x2 = 0.8	945 ± 4.1	5.037 ± 0.23
278.1 K, x2 = 0.9	973.2 ± 4.2	4.089 ± 0.19
283.1 K, x2 = 0.1	811.4 ± 3.2	1.639 ± 0.078
283.1 K, x2 = 0.2	824.7 ± 3.3	1.959 ± 0.092
283.1 K, x2 = 0.3	838.5 ± 3.4	2.26 ± 0.11
283.1 K, x2 = 0.4	854.1 ± 3.4	2.57 ± 0.12
283.1 K, x2 = 0.5	872.8 ± 3.5	2.995 ± 0.14
283.1 K, x2 = 0.6	894.6 ± 3.6	3.499 ± 0.16
283.1 K, x2 = 0.7	918.7 ± 3.8	4.093 ± 0.19
283.1 K, x2 = 0.8	941.4 ± 3.9	4.102 ± 0.19
283.1 K, x2 = 0.9	970.8 ± 4	3.34 ± 0.15
288.15 K, x2 = 0.1	806.9 ± 3	1.51 ± 0.072
288.15 K, x2 = 0.2	820.1 ± 3.1	1.721 ± 0.081
288.15 K, x2 = 0.3	833.9 ± 3.1	1.98 ± 0.093
288.15 K, x2 = 0.4	849.5 ± 3.2	2.212 ± 0.1
288.15 K, x2 = 0.5	868.5 ± 3.3	2.539 ± 0.12
288.15 K, x2 = 0.6	889.6 ± 3.4	2.922 ± 0.13
288.15 K, x2 = 0.7	914.5 ± 3.6	3.372 ± 0.15
288.15 K, x2 = 0.8	938 ± 3.7	3.433 ± 0.16
288.15 K, x2 = 0.9	967.3 ± 3.8	2.706 ± 0.12
293.15 K, x2 = 0.1	802.1 ± 2.8	1.355 ± 0.065
293.15 K, x2 = 0.2	815.6 ± 2.9	1.515 ± 0.072
293.15 K, x2 = 0.3	829.4 ± 2.9	1.715 ± 0.081
293.15 K, x2 = 0.4	845 ± 3	1.901 ± 0.089
293.15 K, x2 = 0.5	863.8 ± 3.1	2.153 ± 0.1
293.15 K, x2 = 0.6	885.1 ± 3.2	2.463 ± 0.11
293.15 K, x2 = 0.7	909.9 ± 3.4	2.842 ± 0.13
293.15 K, x2 = 0.8	934.6 ± 3.5	2.841 ± 0.13
293.15 K, x2 = 0.9	963.7 ± 3.6	2.268 ± 0.11
298.15 K, x2 = 0.1	797.7 ± 3	1.249 ± 0.06
298.15 K, x2 = 0.2	811 ± 3	1.353 ± 0.065
298.15 K, x2 = 0.3	825.1 ± 3.1	1.513 ± 0.072
298.15 K, x2 = 0.4	840.6 ± 3.2	1.651 ± 0.078
298.15 K, x2 = 0.5	859.2 ± 3.3	1.84 ± 0.09
298.15 K, x2 = 0.6	880.6 ± 3.4	2.089 ± 0.098
298.15 K, x2 = 0.7	905.3 ± 3.5	2.35 ± 0.11
298.15 K, x2 = 0.8	931.3 ± 3.7	2.45 ± 0.11
298.15 K, x2 = 0.9	960.3 ± 3.8	1.92 ± 0.09
303.15 K, x2 = 0.1	793 ± 3.1	1.156 ± 0.056
303.15 K, x2 = 0.2	806 ± 3.2	1.218 ± 0.059
303.15 K, x2 = 0.3	820.6 ± 3.3	1.356 ± 0.065
303.15 K, x2 = 0.4	836.1 ± 3.4	1.446 ± 0.069
303.15 K, x2 = 0.5	854.8 ± 3.4	1.598 ± 0.076
303.15 K, x2 = 0.6	876.1 ± 3.6	1.812 ± 0.085
303.15 K, x2 = 0.7	901 ± 3.7	2.04 ± 0.095
303.15 K, x2 = 0.8	927.6 ± 3.8	2.101 ± 0.098
303.15 K, x2 = 0.9	956.2 ± 4	1.656 ± 0.078
308.15 K, x2 = 0.1	788.2 ± 3.3	1.067 ± 0.052
308.15 K, x2 = 0.2	801.4 ± 3.4	1.11 ± 0.054
308.15 K, x2 = 0.3	816 ± 3.4	1.215 ± 0.059
308.15 K, x2 = 0.4	831.4 ± 3.5	1.296 ± 0.063
308.15 K, x2 = 0.5	850.1 ± 3.6	1.407 ± 0.067
308.15 K, x2 = 0.6	871.4 ± 3.7	1.582 ± 0.075
308.15 K, x2 = 0.7	896.5 ± 3.8	1.78 ± 0.084
308.15 K, x2 = 0.8	923.8 ± 4	1.772 ± 0.084
308.15 K, x2 = 0.9	952.7 ± 4.1	1.448 ± 0.069
313.15 K, x2 = 0.1	783.6 ± 3.5	0.92 ± 0.046
313.15 K, x2 = 0.2	796.8 ± 3.5	1.004 ± 0.05
313.15 K, x2 = 0.3	811.1 ± 3.6	1.096 ± 0.054
313.15 K, x2 = 0.4	826.9 ± 3.7	1.149 ± 0.056
313.15 K, x2 = 0.5	845.2 ± 3.8	1.27 ± 0.06
313.15 K, x2 = 0.6	866.8 ± 3.9	1.43 ± 0.068
313.15 K, x2 = 0.7	892 ± 4	1.56 ± 0.074
313.15 K, x2 = 0.8	919.5 ± 4.2	1.557 ± 0.074
313.15 K, x2 = 0.9	949 ± 4.3	1.271 ± 0.061
318.15 K, x2 = 0.1	779 ± 3.6	0.86 ± 0.043
318.15 K, x2 = 0.2	792.2 ± 3.7	0.925 ± 0.046
318.15 K, x2 = 0.3	806.6 ± 3.8	0.998 ± 0.049
318.15 K, x2 = 0.4	822.4 ± 3.8	1.039 ± 0.051
318.15 K, x2 = 0.5	840.5 ± 3.9	1.14 ± 0.06
318.15 K, x2 = 0.6	862.1 ± 4	1.27 ± 0.061
318.15 K, x2 = 0.7	887.4 ± 4.2	1.371 ± 0.066
318.15 K, x2 = 0.8	915.5 ± 4.3	1.369 ± 0.066
318.15 K, x2 = 0.9	945.5 ± 4.5	1.121 ± 0.055
323.15 K, x2 = 0.1	774.3 ± 3.8	0.76 ± 0.039
323.15 K, x2 = 0.2	787.5 ± 3.8	0.839 ± 0.043
323.15 K, x2 = 0.3	801.9 ± 3.9	0.902 ± 0.045
323.15 K, x2 = 0.4	817.7 ± 4	0.932 ± 0.047
323.15 K, x2 = 0.5	835.8 ± 4.1	1.02 ± 0.05
323.15 K, x2 = 0.6	857.3 ± 4.2	1.14 ± 0.056
323.15 K, x2 = 0.7	883 ± 4.3	1.17 ± 0.057
323.15 K, x2 = 0.8	911.2 ± 4.5	1.202 ± 0.058
323.15 K, x2 = 0.9	942 ± 4.6	0.975 ± 0.048
